Measured values published in patent US11034672B1, “Tyrosine kinase inhibitor compositions, methods of making and methods of use” (Black Diamond Therapeutics, Inc., priority 2018, dated 2021).

Legend:
[1] = target: T1, EGFR-Exon 20 insertion SVD (EGFR-SVD) (Homo sapiens, UniProt P00533, DUP768-770); assay: BaF3 panel Cell Titer Glo proliferation, EGFR-SVD (Example 3); format: cell-based; conditions: BaF3 transformant, 72 hours, FIG. 21
T1 construct: expressed in transfected cells; host or cells: BaF3 (murine pro-B), retroviral pMXs-IRES-Blasticidin
T1 sequence (P00533 with tags, fused parts or gaps DUP768-770): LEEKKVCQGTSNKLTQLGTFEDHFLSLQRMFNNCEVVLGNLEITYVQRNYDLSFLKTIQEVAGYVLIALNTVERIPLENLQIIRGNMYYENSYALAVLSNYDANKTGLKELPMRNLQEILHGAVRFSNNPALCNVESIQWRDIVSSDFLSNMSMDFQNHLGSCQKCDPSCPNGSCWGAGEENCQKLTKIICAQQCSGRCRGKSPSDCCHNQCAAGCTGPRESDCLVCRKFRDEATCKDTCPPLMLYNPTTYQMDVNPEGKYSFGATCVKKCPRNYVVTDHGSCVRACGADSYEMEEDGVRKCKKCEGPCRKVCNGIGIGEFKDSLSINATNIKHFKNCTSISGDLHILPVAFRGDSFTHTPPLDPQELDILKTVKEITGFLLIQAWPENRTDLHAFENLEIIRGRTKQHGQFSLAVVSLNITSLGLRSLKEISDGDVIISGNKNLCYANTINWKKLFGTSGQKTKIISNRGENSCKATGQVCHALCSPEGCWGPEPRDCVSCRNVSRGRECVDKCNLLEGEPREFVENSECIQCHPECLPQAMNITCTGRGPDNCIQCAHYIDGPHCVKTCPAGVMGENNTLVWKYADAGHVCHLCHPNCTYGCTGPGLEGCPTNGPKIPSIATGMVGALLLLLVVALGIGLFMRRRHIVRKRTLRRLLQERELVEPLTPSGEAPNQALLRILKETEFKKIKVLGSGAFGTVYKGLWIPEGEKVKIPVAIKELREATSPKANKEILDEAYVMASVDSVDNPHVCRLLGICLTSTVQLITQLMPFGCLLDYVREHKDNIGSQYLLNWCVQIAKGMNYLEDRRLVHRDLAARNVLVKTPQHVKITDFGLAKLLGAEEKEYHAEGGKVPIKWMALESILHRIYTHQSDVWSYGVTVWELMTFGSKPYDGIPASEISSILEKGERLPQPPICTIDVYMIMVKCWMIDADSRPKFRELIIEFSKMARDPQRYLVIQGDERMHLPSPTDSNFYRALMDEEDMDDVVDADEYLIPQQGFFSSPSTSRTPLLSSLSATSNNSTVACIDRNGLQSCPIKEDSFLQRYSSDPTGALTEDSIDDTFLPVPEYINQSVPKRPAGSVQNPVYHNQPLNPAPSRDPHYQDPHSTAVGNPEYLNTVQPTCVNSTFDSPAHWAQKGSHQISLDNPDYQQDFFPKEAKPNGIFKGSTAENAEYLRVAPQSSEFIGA
Experimental: (§1) To determine the ability of Compound No. 6 to target wild type HER2, wild type EGFR, and relevant mutants of each, a panel of BaF3 cell lines and the A431 cell line were dosed and assessed in cell proliferation assays. The BaF3 parental cell line is normally dependent on IL-3 for proliferation, but when transformed with active tyrosine kinase can grow in the absence of IL-3. However, when transformed kinase activity is inhibited by a targeted small molecule the associated proliferation is reduced in proportion to the extent of inhibition. A panel of BaF3 cell lines were generated by transforming the parental BaF3 cell line with wild type HER2 (HER2-WT), HER2 S310F (HER2-S310F), HER2 Exon 20 insertion YVMA (HER2-YVMA), EGFR-Exon 20 insertion ASV (EGFR-ASV), EGFR-Exon 20 insertion SVD (EGFR-SVD), or EGFR-Exon 20 insertion NPH (EGFR-NPH). The A431 lung cancer cell line, which natively expresses WT-EGFR, was used to assess WT-EGFR inhibition. […] Proliferation was assessed using the Cell Titer Glo cell proliferation kit (Promega # G7573). […] Cell Titer Glo was added to plated cells at 15 ul per well, the plate was shaken for 20 minutes at room temperature, and luminescence was measured using Victor X3 Multimode plate reader (Perkin Elmer), Cell Titer Glo readings were taken following 72 hours (T72) after addition of Compound No. 6. […]

WT-EGFR (A431 cell line) = WT-EGFR (A431 cell line) (Homo sapiens, UniProt P00533); assay: A431 cell proliferation (Cell Titer Glo), WT-EGFR; format: cell-based; conditions: A431 cells, 72 hours
WT-EGFR (A431 cell line), sequence (P00533 25-1210): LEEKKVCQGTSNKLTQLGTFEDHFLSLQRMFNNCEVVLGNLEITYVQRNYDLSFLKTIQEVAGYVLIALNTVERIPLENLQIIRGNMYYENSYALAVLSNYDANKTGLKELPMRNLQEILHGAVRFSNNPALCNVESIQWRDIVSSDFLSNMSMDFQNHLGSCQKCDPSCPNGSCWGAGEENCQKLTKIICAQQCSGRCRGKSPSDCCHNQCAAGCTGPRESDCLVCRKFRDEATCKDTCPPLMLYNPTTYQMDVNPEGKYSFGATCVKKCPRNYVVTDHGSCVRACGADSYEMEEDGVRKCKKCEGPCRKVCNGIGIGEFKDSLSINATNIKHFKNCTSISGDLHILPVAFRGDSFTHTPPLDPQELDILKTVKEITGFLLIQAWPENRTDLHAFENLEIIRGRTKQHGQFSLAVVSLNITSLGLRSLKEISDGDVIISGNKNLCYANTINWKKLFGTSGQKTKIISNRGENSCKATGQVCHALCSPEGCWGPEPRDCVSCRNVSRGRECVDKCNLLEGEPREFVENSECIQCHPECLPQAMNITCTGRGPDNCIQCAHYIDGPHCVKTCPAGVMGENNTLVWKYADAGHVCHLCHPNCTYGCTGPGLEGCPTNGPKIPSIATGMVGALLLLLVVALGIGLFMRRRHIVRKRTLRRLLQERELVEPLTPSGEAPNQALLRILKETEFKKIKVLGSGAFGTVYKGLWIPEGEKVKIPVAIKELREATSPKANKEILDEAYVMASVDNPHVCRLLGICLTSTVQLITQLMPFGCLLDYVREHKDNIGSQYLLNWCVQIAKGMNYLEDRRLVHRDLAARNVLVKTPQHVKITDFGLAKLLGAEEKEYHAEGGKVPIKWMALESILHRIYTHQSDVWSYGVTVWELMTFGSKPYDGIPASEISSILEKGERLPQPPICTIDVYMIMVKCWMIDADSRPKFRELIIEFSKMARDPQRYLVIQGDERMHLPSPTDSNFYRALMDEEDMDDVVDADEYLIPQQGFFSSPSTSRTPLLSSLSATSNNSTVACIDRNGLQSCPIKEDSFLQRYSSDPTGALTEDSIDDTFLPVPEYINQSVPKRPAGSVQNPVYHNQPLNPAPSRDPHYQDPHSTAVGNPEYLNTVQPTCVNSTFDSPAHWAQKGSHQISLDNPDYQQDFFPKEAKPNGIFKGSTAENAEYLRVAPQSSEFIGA
Experimental: as §1, with “inhibition.” for “inhibition. A panel of BaF3 cell lines were generated by transforming the parental BaF3 cell line with wild type HER2 (HER2-WT), HER2 S310F (HER2-S310F), HER2 Exon 20 insertion YVMA (HER2-YVMA), EGFR-Exon 20 insertion ASV (EGFR-ASV), EGFR-Exon 20 insertion SVD (EGFR-SVD), or EGFR-Exon 20 insertion NPH (EGFR-NPH). The A431 lung cancer cell line, which natively expresses WT-EGFR, was used to assess WT-EGFR inhibition.”
The BaF3 parental cell line is normally dependent on IL-3 for proliferation, but when transformed with active tyrosine kinase can grow in the absence of IL-3. […] Proliferation was assessed using the Cell Titer Glo cell proliferation kit (Promegaf# G7573). […] Cell Titer Glo was added to plated cells at 15 ul per well, the plate was shaken for 20 minutes at room temperature, and luminescence was measured using Victor X3 Multimode plate reader (Perkin Elmer). […]

[2] = tested on: CUTO-14 tumors (EGFR-Exon 20 insertion ASV); assay: Tumor growth in athymic nude mice bearing CUTO-14 tumors; format: in vivo
Experimental: To determine the ability of Compound No. 6 to inhibit tumor growth and induce tumor regression in vivo, a mouse tumor model containing the EGFR-Exon 20 insertion ASV (CUTO-14) mutation was used. Athymic nude mice from Charles River Labs bearing CUTO-14 tumors were treated with Compound No. 6 at either 50 mg/kg once per day (QD) or 25 mg/kg twice per day (BID) over the indicated time course, and tumor volume was measured. Tumor volume was analyzed to assess the effect of Compound No. 6 on tumor growth and regression.

Her2 Exon 20-YVMA A775 = assay: Tumor pHER2/pERK AlphaLisa in mice bearing Her2 Exon 20-YVMA A775 BaF3 tumors (Example 14); format: in vivo; conditions: two day acute oral dosing, 15 mg/kg; at peak plasma levels; FIG. 33
Experimental: Athymic nude mice from Charles River Labs bearing Her2 Exon 20-YVMA A775 BaF3 tumors were treated with two day acute oral dosing of Compound No. 26 at 15 mg/kg. Following the second dose, tumors were collected at 2 hours, 5 hours, 12 hours and 24 hours, and analyzed for both pHER2 activity and pERK activity via AlphaLisa. Plasma was also collected at these time points and analayzed for the presence of Compound No. 26 to determine pharmacokinetic profile. […] The protein concentration of the supernatant was measured using the BCA reagent Kit (Thermo Scientific #23225). Tumor tissue-derived lysates were analyzed for either HER2 activity or EGFR activity by detection of pHER2 (Tyr1221/1222) or pERK (Thr202/Tyr204) phosphosites, respectively, via AlphaLisa. […] The plate was covered and shaken for 5 minutes on a plate shaker and then incubated at room temperature in the dark for 90 minutes before reading. pHer2 AlphaLisa (Perkin Elmer # ALSU-PEB2-A10K) was used to quantify phosphorylation of Her2 (Tyr1221/1222) or pERK AlphLisA (Perkin Elmer # […]-A10K) was used to quantify phosphorylation of ERK1/2 (Thr202/Tyr204) in the control and Compound No. 26 treated tumor samples.

Structure (SMILES)	IC50 [1] [nM]	IC50 (WT-EGFR (A431 cell line)) [nM]	Tumor volume ([2]; 25 mg/kg twice per day (BID), FIG. 32)	Tumor volume ([2]; 50 mg/kg once per day (QD), FIG. 32)	Tumor volume ([2]; 30 mg/kg once per day (QD), FIG. 31)	Tumor volume ([2]; 50 mg/kg twice per day (BID), FIG. 31)	pERK1/2 (Thr202/Tyr204) in tumors (Her2 Exon 20-YVMA A775)	pHER2 (Tyr1221/1222) in tumors (Her2 Exon 20-YVMA A775)
C=CC(=O)Nc1cc2c(Nc3cc(Cl)c(OCc4cccc(F)c4)cc3F)ncnc2cc1OCCN1CCOCC1 [compound 6]	< 100	> 100	decreased	decreased				
C=CC(=O)Nc1cc2c(Nc3ccc(OCc4ccccn4)c(Cl)c3)ncnc2cc1OCCN1CCOCC1 [compound 8]		> 100			decreased	decreased		
C=CC(=O)Nc1cc2c(Nc3ccc(OCc4ccccn4)c(Cl)c3)ncnc2cc1C#C[C@@H]1[C@H]2CN(C)C[C@@H]12 [compound 26]							near complete reduction	near complete reduction
